In patent US4335249A, “Herbicidal diphenyl ethers, sulfides, sulfoxides and sulfones” (Rohm and Haas Company, priority 1976, dated 1982):

Tests used:
Assay type in all cases: in vivo
[1] = test system: tomato (Lycopersicon esculentum); experiment: Preemergence herbicidal activity, tomato; conditions: for % control, Tomato: Preemergence
How it was run: (§1)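 Spray application (acetone, water dilution; 50 gal per acre carrier; dose as lb/A) onto seeded soil flats. Preemergence flats sprayed on the day of planting; postemergence flats after two weeks of germination. Kill % evaluated about two weeks afterward.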

[2] = test system: velvetleaf (Abutilon theophrasti); experiment: Preemergence herbicidal activity, velvetleaf; conditions: for % control, Velvetleaf: Preemergence
How it was run: as §1

[3] = test system: barnyardgrass (Echinochloa crusgalli); experiment: Preemergence herbicidal activity, barnyardgrass; conditions: for % control, Barnyardgrass: Preemergence
How it was run: (§2)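 Compounds dissolved in acetone, diluted with water, and sprayed onto soil flats at 50 gallons per acre carrier volume at stated lb/A rates. Preemergence: applied immediately after planting; postemergence: applied two weeks after germination.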

[4] = test system: downybrome (Bromus tectorum); experiment: Preemergence herbicidal activity, downybrome; conditions: for % control, Downybrome: Preemergence
How it was run: as §1

foxtail (Setaria spp.) [5] = experiment: Preemergence herbicidal activity, foxtail; conditions: for % control, Foxtail: Preemergence
How it was run: as §1

wild oats (Avena fatua) [6] = experiment: Preemergence herbicidal activity, wild oats; conditions: for % Control, Wild Oats: Preemergence
How it was run: as §1

[7] = test system: tomato (Lycopersicon esculentum); experiment: Postemergence herbicidal activity, tomato; conditions: for % control, Tomato: Postemergence
How it was run: as §1

[8] = test system: barnyardgrass (Echinochloa crusgalli); experiment: Postemergence herbicidal activity, barnyardgrass; conditions: for % control, Barnyardgrass: Postemergence
How it was run: as §2

[9] = test system: downybrome (Bromus tectorum); experiment: Postemergence herbicidal activity, downybrome; conditions: for % control, Downybrome: Postemergence
How it was run: as §1

foxtail (Setaria spp.) [10] = experiment: Postemergence herbicidal activity, foxtail; conditions: for % control, Foxtail: Postemergence
How it was run: as §1

wild oats (Avena fatua) [11] = experiment: Postemergence herbicidal activity, wild oats; conditions: for % Control, Wild Oats: Postemergence
How it was run: as §1

[12] = test system: crabgrass (Digitaria spp.); experiment: Preemergence herbicidal activity, crabgrass
Description: (§3) Using the procedure described below, compounds of the invention are evaluated for control of several of the following plant species:
(§4) The following est procedure is employed. Seeds of selected crops and weeds are planted in soil in flats. For preemergence tests, the flats are treated with the test compound immediately after the planting. For postemergence tests, the seeds are allowed to germinate, and after two weeks the flats are treated with the test compound. The compound to be evaluated is dissolved in acetone, diluted with water, and sprayed over the flats using a carrier volume equivalent to 50 gallons per acre at the rate of application (pounds per acre, lb/A.) specified in the tables. About two weeks after the application of the test compound, the state of growth of the plants is observed and the phytotoxic effect of the compound is evaluated. Tables III and IV give the average percent control achieved by test compounds in terms of the percent of the plants which are killed by the compounds.

corn (Zea mays) = experiment: Preemergence herbicidal activity, corn
Description: as §3, §4

rice (Oryza sativa) [13] = experiment: Preemergence herbicidal activity, rice
Description: as §3, §4

soybean (Glycine max) [14] = experiment: Preemergence herbicidal activity, soybean
Description: as §3, §4

wheat (Triticum sativum) [15] = experiment: Preemergence herbicidal activity, wheat
Description: as §3, §4

rice (Oryza sativa) [16] = experiment: Postemergence herbicidal activity, rice
Description: as §3, §4

soybean (Glycine max) [17] = experiment: Postemergence herbicidal activity, soybean
Description: as §3, §4

wheat (Triticum sativum) [18] = experiment: Postemergence herbicidal activity, wheat
Description: as §3, §4

[19] = test system: cocklebur (Xanthium pensylvanicum); experiment: Preemergence herbicidal activity, cocklebur; conditions: Xanthium strumarium, pre-emergence, 336 h, 2 lb/A
How it was run: as §1

marigold (Tagetes spp.) [20] = experiment: Preemergence herbicidal activity, marigold; conditions: pre-emergence, 336 h, 2 lb/A
How it was run: as §1

[21] = test system: morningglory (Ipomoca spp.); experiment: Preemergence herbicidal activity, morningglory; conditions: Ipomoea, pre-emergence, 336 h, 2 lb/A
How it was run: as §1

[22] = test system: yellow nutsedge (Cyperus esculentus); experiment: Preemergence herbicidal activity, yellow nutsedge; conditions: Cyperus, pre-emergence, 336 h, 2 lb/A
How it was run: as §1

[23] = test system: cocklebur (Xanthium pensylvanicum); experiment: Postemergence herbicidal activity, cocklebur; conditions: Xanthium strumarium, post-emergence, 336 h, 2 lb/A
How it was run: as §1

marigold (Tagetes spp.) [24] = experiment: Postemergence herbicidal activity, marigold; conditions: post-emergence, 336 h, 2 lb/A
How it was run: as §1

[25] = test system: morningglory (Ipomoca spp.); experiment: Postemergence herbicidal activity, morningglory; conditions: Ipomoea, post-emergence, 336 h, 2 lb/A
How it was run: as §1

[26] = test system: velvetleaf (Abutilon theophrasti); experiment: Postemergence herbicidal activity, velvetleaf; conditions: Abutilon theophrasti, post-emergence, 336 h, 2 lb/A
How it was run: as §2

[27] = test system: yellow nutsedge (Cyperus esculentus); experiment: Postemergence herbicidal activity, yellow nutsedge; conditions: Cyperus, post-emergence, 336 h, 2 lb/A
How it was run: as §1

Compound: CCOC(=O)C(C)Oc1ccc(Oc2ccc(C(F)(F)F)cc2Cl)cc1 (centres unmarked) [Example 1, Ethyl 2-[4-(2-chloro-4-trifluoromethylphenoxy)phenoxy] propionate]
- % control, Tomato ([1]; 1/2 lb/A (Table III)): 0%
- % control, Tomato ([1]; 1 lb/A (Table III)): 0%
- % control, Tomato ([1]; 2 lb/A (Table III)): 0%
- % control, Velvetleaf ([2]; 1/2 lb/A (Table III)): 0%
- % control, Velvetleaf ([2]; 1 lb/A (Table III)): 0%
- % control, Velvetleaf ([2]; 2 lb/A (Table III)): 0%
- % control, Barnyardgrass ([3]; 1/2 lb/A (Table III)): 99%
- % control, Barnyardgrass ([3]; 1 lb/A (Table III)): 100%
- % control, Barnyardgrass ([3]; 2 lb/A (Table III)): 100%
- % control, Downybrome ([4]; 1/2 lb/A (Table III)): 0%
- % control, Downybrome ([4]; 1 lb/A (Table III)): 80%
- % control, Downybrome ([4]; 2 lb/A (Table III)): 90%
- % control, Foxtail (foxtail (Setaria spp.) [5]; 1/2 lb/A (Table III)): 100%
- % control, Foxtail (foxtail (Setaria spp.) [5]; 1 lb/A (Table III)): 100%
- % control, Foxtail (foxtail (Setaria spp.) [5]; 2 lb/A (Table III)): 100%
- % Control, Wild Oats (wild oats (Avena fatua) [6]; 1/2 lb/A (Table III)): 0%
- % Control, Wild Oats (wild oats (Avena fatua) [6]; 1 lb/A (Table III)): 60%
- % Control, Wild Oats (wild oats (Avena fatua) [6]; 2 lb/A (Table III)): 99%
- % control, Tomato ([7]; 1/2 lb/A (Table III)): 10%
- % control, Tomato ([7]; 1 lb/A (Table III)): 30%
- % control, Tomato ([7]; 2 lb/A (Table III)): 80%
- % control, Barnyardgrass ([8]; 1/2 lb/A (Table III)): 100%
- % control, Barnyardgrass ([8]; 1 lb/A (Table III)): 100%
- % control, Barnyardgrass ([8]; 2 lb/A (Table III)): 100%
- % control, Downybrome ([9]; 1/2 lb/A (Table III)): 70%
- % control, Downybrome ([9]; 1 lb/A (Table III)): 80%
- % control, Downybrome ([9]; 2 lb/A (Table III)): 90%
- % control, Foxtail (foxtail (Setaria spp.) [10]; 1/2 lb/A (Table III)): 100%
- % control, Foxtail (foxtail (Setaria spp.) [10]; 1 lb/A (Table III)): 100%
- % control, Foxtail (foxtail (Setaria spp.) [10]; 2 lb/A (Table III)): 100%
- % Control, Wild Oats (wild oats (Avena fatua) [11]; 1/2 lb/A (Table III)): 100%
- % Control, Wild Oats (wild oats (Avena fatua) [11]; 1 lb/A (Table III)): 100%
- % Control, Wild Oats (wild oats (Avena fatua) [11]; 2 lb/A (Table III)): 100%
- % Control, Crabgrass ([12]; 1/2 lb/A (Table III)): 100%
- % Control, Crabgrass ([12]; 1 lb/A (Table III)): 100%
- % Control, Crabgrass ([12]; 2 lb/A (Table III)): 100%
- % Control, Corn (corn (Zea mays); 1/2 lb/A (Table III)): 0%
- % Control, Corn (corn (Zea mays); 1 lb/A (Table III)): 60%
- % Control, Corn (corn (Zea mays); 2 lb/A (Table III)): 99%
- % Control, Rice (rice (Oryza sativa) [13]; 1/2 lb/A (Table III)): 0%
- % Control, Rice (rice (Oryza sativa) [13]; 1 lb/A (Table III)): 80%
- % Control, Rice (rice (Oryza sativa) [13]; 2 lb/A (Table III)): 100%
- % Control, Soybean (soybean (Glycine max) [14]; 1/2 lb/A (Table III)): 0%
- % Control, Soybean (soybean (Glycine max) [14]; 1 lb/A (Table III)): 0%
- % Control, Soybean (soybean (Glycine max) [14]; 2 lb/A (Table III)): 0%
- % Control, Wheat (wheat (Triticum sativum) [15]; 1/2 lb/A (Table III)): 0%
- % Control, Wheat (wheat (Triticum sativum) [15]; 1 lb/A (Table III)): 0%
- % Control, Wheat (wheat (Triticum sativum) [15]; 2 lb/A (Table III)): 0%
- % Control, Rice (rice (Oryza sativa) [16]; 1/2 lb/A (Table III)): 70%
- % Control, Rice (rice (Oryza sativa) [16]; 1 lb/A (Table III)): 99%
- % Control, Rice (rice (Oryza sativa) [16]; 2 lb/A (Table III)): 90%
- % Control, Soybean (soybean (Glycine max) [17]; 1/2 lb/A (Table III)): 20%
- % Control, Soybean (soybean (Glycine max) [17]; 1 lb/A (Table III)): 30%
- % Control, Soybean (soybean (Glycine max) [17]; 2 lb/A (Table III)): 40%
- % Control, Wheat (wheat (Triticum sativum) [18]; 1/2 lb/A (Table III)): 80%
- % Control, Wheat (wheat (Triticum sativum) [18]; 1 lb/A (Table III)): 90%
- % Control, Wheat (wheat (Triticum sativum) [18]; 2 lb/A (Table III)): 95%

Compound: CCOC(=O)C(C)Oc1ccc(Sc2ccc(C(F)(F)F)cc2[N+](=O)[O-])cc1 (centres unmarked) [Example 48, Ethyl 2-[4-(2-nitro-4-trifluoromethylphenylthio)phenoxy] propionate]
- pest or weed control at 2241.7 g/ha [19]: 0%
- pest or weed control at 2241.7 g/ha (marigold (Tagetes spp.) [20]): 0%
- pest or weed control at 2241.7 g/ha [21]: 0%
- pest or weed control at 2241.7 g/ha ([1]; Solanum lycopersicum, pre-emergence, 336 h, Pre, 2 lb/A): 0%
- pest or weed control at 2241.7 g/ha ([2]; Abutilon theophrasti, pre-emergence, 336 h, Pre, 2 lb/A): 0%
- pest or weed control at 2241.7 g/ha ([3]; Echinochloa crus-galli, pre-emergence, 336 h, Pre, 2 lb/A): 95%
- pest or weed control at 2241.7 g/ha ([4]; Bromus tectorum, pre-emergence, 336 h, Pre, 2 lb/A): 30%
- pest or weed control at 2241.7 g/ha (foxtail (Setaria spp.) [5]; Setaria, pre-emergence, 336 h, Pre, 2 lb/A): 95%
- pest or weed control at 2241.7 g/ha [22]: 0%
- pest or weed control at 2241.7 g/ha (wild oats (Avena fatua) [6]; Avena fatua, pre-emergence, 336 h, Pre, 2 lb/A, read-out: % control, Wild oat): 0%
- pest or weed control at 2241.7 g/ha [23]: 0%
- pest or weed control at 2241.7 g/ha (marigold (Tagetes spp.) [24]): 0%
- pest or weed control at 2241.7 g/ha [25]: 0%
- pest or weed control at 2241.7 g/ha ([7]; Solanum lycopersicum, post-emergence, 336 h, Post, 2 lb/A): 0%
- pest or weed control at 2241.7 g/ha [26]: 0%
- pest or weed control at 2241.7 g/ha ([8]; Echinochloa crus-galli, post-emergence, 336 h, Post, 2 lb/A): 60%
- pest or weed control at 2241.7 g/ha ([9]; Bromus tectorum, post-emergence, 336 h, Post, 2 lb/A): 0%
- pest or weed control at 2241.7 g/ha (foxtail (Setaria spp.) [10]; Setaria, post-emergence, 336 h, Post, 2 lb/A): 20%
- pest or weed control at 2241.7 g/ha [27]: 0%
- pest or weed control at 2241.7 g/ha (wild oats (Avena fatua) [11]; Avena fatua, post-emergence, 336 h, Post, 2 lb/A, read-out: % control, Wild oat): 80%
